Data from patent US10112925B2, “Methods for the preparation of charged crosslinkers” (IMMUNOGEN, INC., priority 2010, dated 2018).

What was measured:
[1] = Hygroscopicity of solid forms of compound (V), qualitative comparison; type: physicochemical; details: solid form; amorphous solid made according to US 20090274713 as comparator
From the text: In one embodiment, the invention is directed to new crystalline forms of the compound of formula (V), e.g., Crystalline Forms 1, 2a, 2b and 3 as described below.

[2] = Gravimetric vapour sorption (GVS) moisture sorption isotherm; type: physicochemical; details: 25° C.; for weight gain, adsorption profile (GVS): between 40% RH and 90% RH; for weight loss, desorption profile (GVS): between 90% RH and 0% RH
Description: Sorption isotherms were obtained using a SMS DVS Intrinsic moisture sorption analyser, controlled by DVS Intrinsic Control software v1.0.0.30. The sample temperature was maintained at 25° C. by the instrument controls. The humidity was controlled by mixing streams of dry and wet nitrogen, with a total flow rate of 200 ml/min. The relative humidity was measured by a calibrated Rotronic probe (dynamic range of 1.0-100% RH), located near the sample. The weight change, (mass relaxation) of the sample as a function of % RH was constantly monitored by the microbalance (accuracy ±0.005 mg).
Typically 10 mg of sample was placed in a tared mesh stainless steel basket under ambient conditions. The sample was loaded and unloaded at 40% RH and 25° C. (typical room conditions). A moisture sorption isotherm was performed as outlined below (2 scans giving 1 complete cycle). The standard isotherm was performed at 25° C. at 10% RH intervals over a 0-90% RH range. Data analysis was undertaken in Microsoft Excel using DVS Analysis Suite v6.0.0.7.

SMILES	hygroscopicity [1]	weight gain, adsorption profile (GVS) [2] [%]	weight loss, desorption profile (GVS) [2] [%]	weight gain, second adsorption profile (GVS) ([2]; between 0% RH and 40% RH) [%]
O=C(ON1C(=O)CCC1=O)C(CCSSc1ccccn1)S(=O)(=O)O (stereo not drawn) [Compound of formula (V), N-succinimidyl 4-(2′-pyridyldithio)-2-sulfobutanoate]	highly hygroscopic			
O=C(ON1C(=O)CCC1=O)C(CCSSc1ccccn1)S(=O)(=O)O (stereo not drawn) [Crystalline Form 1, N-succinimidyl 4-(2′-pyridyldithio)-2-sulfobutanoate]	significantly less hygroscopic than the amorphous solid	1.6	1.9	
O=C(ON1C(=O)CCC1=O)C(CCSSc1ccccn1)S(=O)(=O)O (stereo not drawn) [Crystalline Form 2a, N-succinimidyl 4-(2′-pyridyldithio)-2-sulfobutanoate]	significantly less hygroscopic than the amorphous solid	1.8	2.4	
O=C(ON1C(=O)CCC1=O)C(CCSSc1ccccn1)S(=O)(=O)O (stereo not drawn) [Crystalline Form 2b, N-succinimidyl 4-(2′-pyridyldithio)-2-sulfobutanoate]	significantly less hygroscopic than the amorphous solid			
O=C(ON1C(=O)CCC1=O)C(CCSSc1ccccn1)S(=O)(=O)O (stereo not drawn) [Crystalline Form 3, N-succinimidyl 4-(2′-pyridyldithio)-2-sulfobutanoate]	significantly less hygroscopic than the amorphous solid	25	29.4	0.4
